Experimental data reported in patent publication US10045980B2, “Inhibitor of p38 map kinase” (RESPIVERT LTD, priority 2014, dated 2018).

Legend:
GSK 3α enzyme isoform = molecular target: T1, GSK 3α enzyme isoform (Homo sapiens, UniProt P49840); test: GSK 3α enzyme inhibition (Z-LYTE FRET); format: biochemical; settings: read-out: IC50 Values for Enzyme Inhibition GSK3α
T1 construct: purchased Life Technologies
Method: The enzyme inhibitory activities of the compound disclosed herein were determined by FRET using synthetic peptides labelled with both donor and acceptor fluorophores (Z-LYTE, Life Technologies, Paisley, UK).
Development reagent (protease, 5 μL) was added for 1 h prior to detection in a fluorescence microplate reader (EnVision, Perkin Elmer).
In all cases, the site-specific protease cleaves non-phosphorylated peptide only and eliminates the FRET signal. Phosphorylation levels of each reaction were calculated using the ratio of coumarin emission (donor) over fluorescein emission (acceptor), for which low ratios indicate high phosphorylation and high ratios indicate low phosphorylation levels.

BEAS2B cells = test: Poly I:C-induced ICAM-1 expression in BEAS2B cells; format: cell-based; settings: Homo sapiens, BEAS-2B, 18 h after poly I:C transfection, read-out: PolyIC/ICAM1 IC50 (BEAS2B)
Method: Poly I:C was used in these studies as a simple, RNA virus mimic. Poly I:C-Oligofectamine mixture (2% Oligofectamine±1 μg/mL Poly I:C, 25 μL; Life Technologies and Invivogen Ltd., San Diego, Calif., respectively) was transfected into BEAS2B cells (human bronchial epithelial cells, ATCC). Cells were pre-incubated with final concentrations of test compounds for 2 h and the level of ICAM-1 expression on the cell surface was determined by cell-based ELISA. […]
The cells were washed with PBS-Tween (3×200 μL) and incubated with the secondary antibody (100 μL; HRP-conjugated anti-rabbit IgG, Dako Ltd., Glostrup, Denmark). […] The ICAM-1 signal was detected by reading the absorbance at 450 nm against a reference wavelength of 655 nm using a spectrophotometer. The cells were then washed with PBS-Tween (3×200 μL) and total cell numbers in each well were determined by reading absorbance at 595 nm after Crystal Violet staining (50 μL of a 2% solution in PBS) and elution by 1% SDS solution (100 μL) in PBS. The measured OD 450-655 readings were corrected for cell number by dividing with the OD595 reading in each well. The inhibition of ICAM-1 expression was calculated at each concentration of test compound by comparison with vehicle control.

PBMCs = test: Cell mitosis assay; format: cell-based; settings: Homo sapiens, PBMC; At 5 ug/mL; PHA-treated PBMCs, 20 h exposure; Mean ± SEM
Method: Peripheral blood mononucleocytes (PBMCs) from healthy subjects were separated from whole blood (Quintiles, London, UK) using a density gradient (Histopaque-1077, Sigma-Aldrich, Poole, UK). The PBMCs (3 million cells per sample) were subsequently treated with 2% PHA (Sigma-Aldrich, Poole, UK) for 48 h, followed by a 20 h exposure to varying concentrations of test compounds. At 2 h before collection, PBMCs were treated with demecolcine (0.1 μg/mL; Life Technologies, Paisley, UK,) to arrest cells in metaphase.

[1] = system: sputum macrophages from COPD patients; test: Cytokine production in LPS-treated sputum macrophages from COPD patients; format: cell-based; settings: Homo sapiens, Macrophage; at 0.1 μg/mL; LPS 1 μg/mL, 18 h; read-out: Percent Inhibition IL-6
Method: Patients with COPD inhaled a nebulised solution of 3% (w/v) hypertonic saline using an ultrasonic nebuliser (Devilbiss, Carthage, Mo.) with tidal breathing for 5 min. This procedure was repeated a maximum of three times until enough sputum was obtained. The sputum samples were homogenized and mixed vigorously using a vortex mixer in 0.02% v/v dithiothreitol (DTT) solution. The samples were re-suspended in PBS (40 mL) followed by centrifugation at 1500 rpm at 4° C. for 10 min to obtain sputum cell pellets. The pellets were washed with PBS (40 mL). […]
Where appropriate, 1 μL of a solution containing either the test compound or reference article at the stated concentrations (either 0.1 μg/mL, 0.01 μg/mL, or 0.001 μg/mL) or alternatively 1 μL of DMSO as the vehicle control was added to each well (200 μL in media) and the cells were incubated for 2 h. […] After washing with 200 μL wash buffer per well, the beads were resuspended in sheath fluid (150 μL) and analyzed immediately. The level of each analyte in the supernatant was calculated using Xcel Fit software with a 4 or 5-parameter equation using each standard curve. The inhibitions of each cytokine production were calculated at each concentration by comparison with vehicle control.

[2] = system: BEAS2B cells infected with human rhinovirus RV16; test: Rhinovirus-induced IL-8 release; format: cell-based; settings: FIG. 9
Method: Human rhinovirus RV16 is obtained from the American Type Culture Collection (Manassas, Va.). Viral stocks are generated by infecting MRC5 cells with HRV until 80% of the cells were cytopathic.
BEAS2B cells are infected with HRV at an MOI of 1.2 and incubated for 1 h at 33° C. with gentle shaking for to promote absorption. The cells are then washed with PBS, fresh media added and the cells are incubated for a further 72 h. The supernatant is collected for assay of IL-8 concentrations using a Duoset ELISA development kit (R&D systems, Minneapolis, Minn.). Compounds are added 2 h before HRV infection and 1 h after infection when non-infected HRV is washed out.

T1 sequence (P49840 whole entry, canonical isoform): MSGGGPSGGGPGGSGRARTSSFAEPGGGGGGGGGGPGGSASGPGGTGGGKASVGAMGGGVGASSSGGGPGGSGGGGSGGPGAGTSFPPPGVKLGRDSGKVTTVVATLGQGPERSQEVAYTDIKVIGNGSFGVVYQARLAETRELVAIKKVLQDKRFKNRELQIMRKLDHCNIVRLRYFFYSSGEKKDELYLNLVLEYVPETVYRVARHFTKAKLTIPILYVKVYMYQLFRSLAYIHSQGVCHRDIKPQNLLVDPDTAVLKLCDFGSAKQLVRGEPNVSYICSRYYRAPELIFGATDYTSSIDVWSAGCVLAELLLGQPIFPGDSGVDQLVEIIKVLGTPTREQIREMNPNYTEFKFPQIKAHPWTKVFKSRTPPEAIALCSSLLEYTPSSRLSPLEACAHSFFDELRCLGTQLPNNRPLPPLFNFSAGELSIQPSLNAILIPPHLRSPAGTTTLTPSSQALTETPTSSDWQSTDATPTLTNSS

Question: How did the IC50 (GSK 3α enzyme isoform) turn out when CCc1cncc(Nc2cc(COc3ccc(NC(=O)Nc4cc(C(C)(C)C)nn4-c4ccc(C)cc4)c4ccccc34)ccn2)n1 [Compound of the invention, 1-(3-(tert-butyl)-1-(p-tolyl)-1H-pyrazol-5-yl)-3-(4-((2-((6-ethylpyrazin-2-yl)amino)pyridin-4-yl)methoxy)naphthalen-1-yl)urea] was run?
Answer: > 15.1 µM

Question: What about the IC50 (BEAS2B cells) of the same molecule?
Answer: 61.1 nM

Question: What about the inhibition at 5 µg/mL (PBMCs) of the same molecule?
Answer: 18 ± 7%

Question: What about the inhibition at 0.1 µg/mL [1] of the same molecule?
Answer: 48 ± 9%

Question: What about the “inhibition of HRV-induced IL-8” value [2] of the same molecule?
Answer: dose-dependent inhibition
